Reference: ChEMBL document CHEMBL1201862, “PubChem BioAssay data set” (2004)
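Assay format: 96-well plates, 48-hour exposure. GI50: concentration for 50% inhibition of growth.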 Activity calls are given as the source filed them. Cut-off read from the data, not from the text of the source: active = GI50 up to about 1.1 µM and inactive = higher.

Columns and labels:
Assay in all cases: growth of human tumour cells (NCI), 48 h
786-0 = system: 786-0
A498 = system: A498
A549 = system: A549
ACHN = system: ACHN
CAKI-1 = system: CAKI-1
CCRF-CEM = system: CCRF-CEM
COLO 205 = system: COLO 205
DLD-1 = system: DLD-1
EKVX = system: EKVX
HCC 2998 = system: HCC 2998
HCT-116 = system: HCT-116
HCT-15 = system: HCT-15
HL-60 = system: HL-60
HOP-18 = system: HOP-18
HOP-62 = system: HOP-62
HOP-92 = system: HOP-92
HT-29 = system: HT-29
IGROV-1 = system: IGROV-1
K562 = system: K562
KM-20L2 = system: KM-20L2
KM12 = system: KM12
LOX IMVI = system: LOX IMVI
LXFL 529 = system: LXFL 529
M14 = system: M14
M19-MEL = system: M19-MEL
MOLT-4 = system: MOLT-4
Malme-3M = system: Malme-3M
NCI-H226 = system: NCI-H226
NCI-H23 = system: NCI-H23
NCI-H460 = system: NCI-H460
NCI-H522 = system: NCI-H522
OVCAR-3 = system: OVCAR-3
OVCAR-4 = system: OVCAR-4
OVCAR-5 = system: OVCAR-5
OVCAR-8 = system: OVCAR-8
RPMI-8226 = system: RPMI-8226
RXF 393 = system: RXF 393
RXF 631 = system: RXF 631
SF-268 = system: SF-268
SF-295 = system: SF-295
SF-539 = system: SF-539
SK-MEL-28 = system: SK-MEL-28
SK-MEL-5 = system: SK-MEL-5
SK-OV-3 = system: SK-OV-3
SN12C = system: SN12C
SNB-19 = system: SNB-19
SNB-75 = system: SNB-75
SNB-78 = system: SNB-78
SR = system: SR
SW-620 = system: SW-620
TK-10 = system: TK-10
U-251 = system: U-251
UACC-257 = system: UACC-257
UACC-62 = system: UACC-62
UO-31 = system: UO-31
XF498 = system: XF498

C[C@@H]1OC2(O)[C@H]3CCCN3S(=O)(=O)CCN2C1=O (stereo partly specified)
GI50 (786-0): > 100 µM (inactive)
GI50 (A498): > 100 µM (inactive)
GI50 (A549): > 100 µM (inactive)
GI50 (ACHN): > 100 µM (inactive)
GI50 (CAKI-1): > 100 µM (inactive)
GI50 (CCRF-CEM): > 100 µM (inactive)
GI50 (COLO 205): > 100 µM (inactive)
GI50 (DLD-1): > 100 µM (inactive)
GI50 (EKVX): > 100 µM (inactive)
GI50 (HCC 2998): > 100 µM (inactive)
GI50 (HCT-116): > 100 µM (inactive)
GI50 (HCT-15): > 100 µM
GI50 (HL-60): > 100 µM (inactive)
GI50 (HOP-18): > 100 µM (inactive)
GI50 (HOP-62): > 100 µM (inactive)
GI50 (HOP-92): > 100 µM (inactive)
GI50 (HT-29): > 100 µM (inactive)
GI50 (IGROV-1): > 100 µM (inactive)
GI50 (K562): > 100 µM (inactive)
GI50 (KM-20L2): > 100 µM (inactive)
GI50 (KM12): > 100 µM (inactive)
GI50 (LOX IMVI): > 100 µM (inactive)
GI50 (LXFL 529): > 100 µM (inactive)
GI50 (M14): > 100 µM (inactive)
GI50 (M19-MEL): > 100 µM (inactive)
GI50 (MOLT-4): > 100 µM (inactive)
GI50 (Malme-3M): > 100 µM (inactive)
GI50 (NCI-H226): > 100 µM (inactive)
GI50 (NCI-H23): > 100 µM (inactive)
GI50 (NCI-H460): > 100 µM (inactive)
GI50 (NCI-H522): > 100 µM (inactive)
GI50 (OVCAR-3): > 100 µM (inactive)
GI50 (OVCAR-4): > 100 µM (inactive)
GI50 (OVCAR-5): > 100 µM (inactive)
GI50 (OVCAR-8): > 100 µM (inactive)
GI50 (RPMI-8226): > 100 µM (inactive)
GI50 (RXF 393): > 100 µM (inactive)
GI50 (RXF 631): > 100 µM (inactive)
GI50 (SF-268): > 100 µM (inactive)
GI50 (SF-295): > 100 µM (inactive)
GI50 (SF-539): > 100 µM (inactive)
GI50 (SK-MEL-28): > 100 µM (inactive)
GI50 (SK-MEL-5): > 100 µM (inactive)
GI50 (SK-OV-3): > 100 µM (inactive)
GI50 (SN12C): > 100 µM (inactive)
GI50 (SNB-19): > 100 µM (inactive)
GI50 (SNB-75): > 100 µM (inactive)
GI50 (SNB-78): > 100 µM (inactive)
GI50 (SR): > 100 µM (inactive)
GI50 (SW-620): > 100 µM (inactive)
GI50 (TK-10): > 100 µM (inactive)
GI50 (U-251): > 100 µM (inactive)
GI50 (UACC-257): > 100 µM (inactive)
GI50 (UACC-62): > 100 µM (inactive)
GI50 (UO-31): > 100 µM (inactive)
GI50 (XF498): 0.0306 µM (active)
